Results as given in ChEMBL document CHEMBL1152224, “Small, non-peptide C5a receptor antagonists: part 1” (Bioorg Med Chem Lett, 2008).

Legend:
[1] = Lipophilicity, log P of the compound; type: physicochemical; conditions: octanol/water
in vitro = conditions: human, liver microsomes
[2] = Half life in rat at 0.5 mg/kg, iv and 10 mg/kg, po; type: ADME, organism-based; conditions: in vivo
[3] = Clearance in rat at 0.5 mg/kg, iv and 10 mg/kg, po; type: ADME, organism-based; conditions: in vivo
[4] = Volume of distribution in rat at 0.5 mg/kg, iv and 10 mg/kg, po; type: ADME, organism-based; conditions: in vivo
[5] = Oral bioavailability in rat at 10 mg/kg, po; type: ADME, organism-based; conditions: in vivo
physchem = conditions: octanol/water, pH 7.4
[6] = Half life in dog at 0.5 mg/kg, iv; type: ADME, organism-based, Canis lupus familiaris; parameters: dose 0.5 mg/kg, route intravenous; conditions: in vivo
[7] = Clearance in dog at 0.5 mg/kg, iv; type: ADME, organism-based, Canis lupus familiaris; parameters: dose 0.5 mg/kg, route intravenous; conditions: in vivo
[8] = Volume of distribution in dog at 0.5 mg/kg, iv; type: ADME, organism-based, Canis lupus familiaris; parameters: dose 0.5 mg/kg, route intravenous; conditions: in vivo

| SMILES | logP [1] | half-life (in vitro) [min] | half-life [2] [min] | clearance [3] [mL/min/kg] | Vd [4] [L/kg] | bioavailability [5] [%] | logD (physchem) | half-life [6] [min] | clearance [7] [mL/min/kg] | Vd [8] [L/kg] |
| --- | --- | --- | --- | --- | --- | --- | --- | --- | --- | --- |
| O=C(Nc1ccc(F)cc1F)N1CCC(N(CCc2ccc(Cl)cc2)C(=O)c2csc3ccccc23)CC1 | > 5 | 11 | – | – | – | – | – | – | – | – |
| O=C(c1csc2ccccc12)N(CCc1ccc(Cl)cc1)[C@H]1CC[C@H](O)CC1 | – | 14 | 30 | 67 | 3 | 0.5 | 4.9 | – | – | – |
| O=C(c1cccc2ccccc12)N(CCc1ccc(Cl)cc1)[C@H]1CC[C@H](O)CC1 | – | 20 | – | – | – | – | > 5 | 84 | 29 | 3.5 |
| O=C(c1csc2ccccc12)N(CCc1ccc(Cl)cc1)C1CCN(CCc2ccc(F)cc2F)CC1 | – | – | – | – | – | – | 4.1 | – | – | – |
